Data set [1] in a line: stability under normal storage conditions and normal formulation manipulations. The format is physicochemical.
Data set [2] can be described thus: hygroscopicity under normal handling and storage conditions. The format is physicochemical.

Take `CO[C@H]1/C=C/O[C@@]2(C)Oc3c(C)c(O)c4c(O)c(c(/C=N/N5CCN(C6CCCC6)CC5)c(O)c4c3C2=O)NC(=O)/C(C)=C\C=C\[C@H](C)[C@H](O)[C@@H](C)[C@@H](O)[C@@H](C)[C@H](OC(C)=O)[C@@H]1C` [crystalline form of rifapentine, Rifapentine]: the stability entry in data set [1] was “stable”. Besides, the hygroscopicity entry is given as “non-hydroscopic” in data set [2] (normal handling and storage conditions); “non-hygroscopic” in data set [2] (normal storage conditions and normal formulation manipulations).

Source of the values: patent US20240199642A1, “METHOD FOR OBTAINING RIFAPENTINE WITH A NEW CRYSTALLINE FORM” (INTERQUIM S.A. DE C.V., priority 2021, published 2024).
